Key:
mouse hepatocytes = test: In vitro metabolism of Compound 2 in mouse cryopreserved hepatocytes; assay type: in vitro ADME; design: key to Relative abundance of metabolite of Compound 2, Mouse: ND Not detected.; trace: Trace: observed by HPLC/MS measurements only.; + Minor as assessed by HPLC/UV measurements; ++ moderate as assessed by HPLC/UV measurements; +++ major as assessed by HPLC/UV measurements.; * m/z 593 and m/z 505 co-eluted in rabbit hepatocytes.; ** m/z 591 c and m/z 593 were merged in human hepatocytes and Hepatopack.; *** m/z 607 and m/z 751 b were merged in rabbit hepatocytes; details: for metabolite of Compound 2 observed in mouse hepatocyte incubations: 10 μM Compound 2, 7.5×10^5 cells/mL, 1 and 4 hrs composite
Experimental: (§1) Male CD-1 mouse hepatocytes (lot YHL), male Wistar-Han rat hepatocytes (Celsius; product number: M000065; lot: SLA), female New Zealand rabbit hepatocytes (lot 1510147), male cryopreserved cynomolgus monkey hepatocytes (Celsius; product number: M00305; lot: DNB) and mixed-gender cryopreserved human hepatocytes (Bioreclamation; product number: S01988; lot: DCM) were obtained for the hepatocyte in-vitro assessments.
(§2) At time 0 hrs 550 μL aliquots were removed from incubations and quenched with 5 volumes of ACN containing 0.1% formic acid. At 1 and 4 hrs, 275 μL aliquots were removed and quenched as above; these were combined in the same tube to prepare a composite sample. For all hepatocyte experiments, samples were processed by centrifugation at 1900×g for 5 minutes, and then the supernatant was transferred to clean glass tubes and evaporated to dryness under a stream of N2 using a Turbovap at 37° C. Sample residues were reconstituted in mobile phase prior to analysis by HPLC/UV/MS^n.
(§3) Samples were analyzed by HPLC/UV/MS^n using a Thermo Orbitrap Elite mass spectrometer in conjunction with a Thermo Open Accela UHPLC system. A 3.0×150 mm, 2.5 μm Acquity CSH C18 HPLC column (Waters) was heated to 45° C. for separation of analytes. The mobile phase was a gradient of A): water containing 0.1% formic acid, and B): acetonitrile. The flow rate was 450 μL/min, and the following gradient program was utilized: […]
(§4) UV absorbance was monitored with a photo-diode array detector from 220-450 nm. The mass spectrometer was operated in positive-ion mode with a HESI ion source at a potential of 3.0 kV, and capillary and source heater temperatures of 380 and 300° C., respectively. Sheath, auxiliary, and sweep gas flows were set to 45, 10, and 2 units, respectively. Full scan mass spectra were acquired over the range 120-1200 m/z at a resolving power of 30,000 (specified at m/z 400). Data-dependent MS^n spectra were acquired in an automated fashion at 15,000 resolving power using CID and HCD fragmentation with normalized collision energy settings of 28 and 65 V, respectively.
(§5) Metabolites were characterized by comparisons of mass spectral fragmentation patterns with that of a Compound 2 standard. All HPLC/UV/MS^n data were processed using Xcalibur v. 2.2, and integrated UV peak areas were subjected to weighted UV binning procedures utilizing an Excel template.

[1] = tested on: human co-cultured hepatocytes (Hepatopack); test: In vitro metabolism of Compound 2 in human micropatterned co-cultured hepatocytes (Hepatopack); assay type: in vitro ADME; design: key to Relative abundance of metabolite of Compound 2, Hepatopack: ND Not detected.; trace: Trace: observed by HPLC/MS measurements only.; + Minor as assessed by HPLC/UV measurements; ++ moderate as assessed by HPLC/UV measurements; +++ major as assessed by HPLC/UV measurements.; * m/z 593 and m/z 505 co-eluted in rabbit hepatocytes.; ** m/z 591 c and m/z 593 were merged in human hepatocytes and Hepatopack.; *** m/z 607 and m/z 751 b were merged in rabbit hepatocytes
From the text: Micro-patterned co-cultured (MPCC) hepatocyte 24-well plates containing human donors (16 wells each) were provided by Ascendance Biotechnology (formerly Hepregen Corp. (Medford, MA). [see Wang W W W, Khetani S R, Krzyzewski S, et al. Assessment of a Micropatterned Hepatocyte Coculture System to Generate Major Human Excretory and Circulating Drug Metabolites. Drug Metab Dispos 2010; 38(10):1900-5.] The MPCCs were created at Ascendance Biotechnology and maintained in serum containing medium for 5-6 days to allow for stabilization of the co-cultures prior to shipment. A mixed-gender cryopreserved pool of 10 human donors (X008001-P; lot YFA) was used to seed the plates and was purchased from BioreclamationIVT (Westbury, NY). MPCC hepatocytes are plated with fibroblasts in a 1:3 ratio with ˜25,000 hepatocytes/well in a 24-well plate. 24-Well MPCC plates were shipped to Pfizer, fresh medium (400 μL/well) was applied and cultures were kept at 37° C. with […] and 95% relative humidity for two days. Micropatterned co-cultures containing pooled hepatocytes were allowed 7 days to fully stabilize with respect to liver-specific functions. […] At respective time points (0, 2, and 7 days), the culture medium was removed and mixed with 4 volumes of ACN, then stored frozen at −40° C. until samples could be analyzed. Samples were subsequently processed by the addition of 2.5 mL of 1:1 ACN:MeOH containing 0.1% formic acid. After vortexing, the samples were centrifuged at 1900×g for 5 min, then the supernatant was transferred to 15 mL conical tubes and evaporated under N2 using a Turbovap set at 37° C. The residues were reconstituted in mobile phase (5:95 v:v ACN:0.1% aqueous formic acid) prior to analysis by HPLC/UV/MS^n.
as §3
as §4, with “Data-dependent MS^n spectra were acquired in an automated fashion at 15,000 resolving power using CID and HCD fragmentation with normalized collision energy settings of 28 and 65 V, respectively.” left out

[2] = Circulating metabolites of Compound 2 in rat plasma following a 1.0 mg/kg IV bolus dose; assay type: in vivo; details: 1.0 mg/kg IV bolus dose of Compound 2, pooled 0.033-24 hrs
Experimental: Plasma and bile samples were obtained from a bile duct cannulated rat experiment (Study PK-0111) in which a 1.0 mg/kg IV bolus dose was administered to fed male rats (N=3). No control plasma was available from this experiment.
Clin Pharmacol Ther 1981; 29(3):408-13]. The entire volume of each replicate Hamilton pool was combined to create a single pooled sample (576 μL) for analysis.
Pooled plasma and bile samples were extracted with ACN containing 0.1% formic acid, and after centrifugation at 1900×g, the supernatant was transferred to clean tubes and evaporated under N2 in a Turbovap set at 37° C. Residues were reconstituted in mobile phase (5:95 v:v ACN:0.1% aqueous formic acid) prior to analysis by HPLC/UV/MS^n.
as §3, §4, §5

rat hepatocytes = test: In vitro metabolism of Compound 2 in rat cryopreserved hepatocytes; assay type: in vitro ADME; design: key to Relative abundance of metabolite of Compound 2, Rat: ND Not detected.; trace: Trace: observed by HPLC/MS measurements only.; + Minor as assessed by HPLC/UV measurements; ++ moderate as assessed by HPLC/UV measurements; +++ major as assessed by HPLC/UV measurements.; * m/z 593 and m/z 505 co-eluted in rabbit hepatocytes.; ** m/z 591 c and m/z 593 were merged in human hepatocytes and Hepatopack.; *** m/z 607 and m/z 751 b were merged in rabbit hepatocytes; details: for metabolite of Compound 2 observed in rat hepatocyte incubations: 10 μM Compound 2, 7.5×10^5 cells/mL, 1 and 4 hrs composite
Experimental: as §1, §2, §3, §4, §5

| Structure (SMILES) | metabolite of Compound 2 observed in mouse hepatocyte incubations (mouse hepatocytes) | abundance of metabolite of Compound 2 in human Hepatopack system ([1]; Compound 2 tris salt 20 μM, up to 7 days) | detected in rat plasma [2] | detected in rat plasma ([2]; listed as m/z 751b) | metabolite of Compound 2 observed in rat hepatocyte incubations (rat hepatocytes) | Relative abundance of metabolite of Compound 2, Mouse (mouse hepatocytes; mouse cryopreserved hepatocytes, HPLC/UV/MS) | Relative abundance of metabolite of Compound 2, Hepatopack ([1]; human co-cultured hepatocytes (Hepatopack), HPLC/UV/MS) | detected in rat plasma ([2]; listed as m/z 331) | Relative abundance of metabolite of Compound 2, Rat (rat hepatocytes; rat cryopreserved hepatocytes, HPLC/UV/MS) |
| --- | --- | --- | --- | --- | --- | --- | --- | --- | --- |
| C[C@]1(c2ccc(Cl)cn2)Oc2cccc(C3CCN(Cc4nc5ccc(C(=O)O[C@@H]6O[C@H](C(=O)O)[C@@H](O)[C@H](O)[C@H]6O)cc5n4C[C@@H]4CCO4)CC3)c2O1 [Metabolite 751b] | observed in all hepatocyte incubations | most abundant metabolites | observed | detected | observed in all hepatocyte incubations | – | – | – | – |
| C[C@]1(c2ccc(Cl)cn2)Oc2cccc(C3CCNCC3)c2O1 [Metabolite 331] | observed in all hepatocyte incubations | – | observed | – | observed in all hepatocyte incubations | + | trace | detected | trace |
